The results in this text go back to patent US12246091B2, “Method of encapsulating active ingredients in liposomes” (ABNOBA GMBH, priority 2018, dated 2025).

A short description of the data set: Solubility of the amphiphilic compound in the first liquid perfluoroperhydrophenanthrene (C14F24). Conditions: for solubility: perfluoroperhydrophenanthrene (C14F24), organic solvent or mixture.

SMILES strings stand for the structures.

Turning to `CCCCCCCCCCCCCCCC(=O)OC[C@H](COP(=O)([O-])OCC[N+](C)(C)C)OC(=O)CCCCCCCCCCCCCCC` [DPPC, dipalmitoylphosphatidylcholine], the solubility (as a rule, the concentration that dissolves in the medium under given conditions) is under 10 µM. On to `CCCCCCCCCCCCCCCCCC(=O)OC[C@H](COP(=O)([O-])OCC[N+](C)(C)C)OC(=O)CCCCCCCCCCCCCCCCC` [DSPC, distearoylphosphatidylcholine], for which the “Solubility in C14F24” value (in perfluoroperhydrophenanthrene (C14F24, CAS 306-91-2), bound is the detection limit) is recorded as < 10^−5 mol/l.

As for `CC(C)CCC[C@@H](C)[C@H]1CC[C@H]2[C@@H]3CC=C4C[C@@H](O)CC[C@]4(C)[C@H]3CC[C@]12C` [cholesterol], the solubility was under 10 µM.
